# Experimental data taken from patent publication US20210290537A1, “LIPOSOMAL ELINAFIDE FORMULATIONS AND USES THEREOF” (MALLINCKRODT LLC, priority 2016, published 2021).
# Where two headings read alike, the source gives them in different places.
# Assays:
# [1] = MTD of liposomal and free naphthalimides and azonifides; format: in vivo
# [2] = phase I studies / clinical development, background; cited from earlier work
# [3] = system: HT-29 human colorectal adenocarcinoma cells; assay: In vitro IC50 cytotoxicity, Alamar Blue cell viability; format: cell-based
# Procedure: HT-29 human colorectal adenocarcinoma cells (#HTB-38, ATCC, Manassas, Va.) were plated in 96-well tissue culture plates (Costar #3595) at 5×10^3 cells/well in a final volume of 0.1 mL of 10% fetal bovine serum in McCoy's 5A (#10-050-CV, Mediatech, Manassas, Va.). Defined fetal bovine serum was obtained from HyClone (#SH30070.03, lot #AWB96395, Logan, Utah). Plates containing cells were incubated at 37° C. in 5% CO2 in humidified air for 24 hr. The selected initial cell plating density was chosen based upon the approximate doubling time of the human tumor cell line.
# Test compounds were diluted from stock solutions to 2.2 mmol/L in Dulbecco's modified phosphate-buffered saline (DPBS; Mediatech, Inc., lot #21031339, Manassas, Va.), then serially diluted three-fold in DPBS to generate a nine point dose-response curve. Ten microliters of diluted test compounds were added to wells in triplicate to achieve the desired final concentration of test compounds. Plates containing cells with and without added test compounds were returned to incubation as described above.
# For the two hour cytotoxicity assessment, medium was removed after two hours of drug exposure and replaced with 0.1 mL/well culture medium, and cells were incubated for an additional 70 hours as above.
# For the twenty-four hour cytotoxicity assessment, medium was removed after one day of drug exposure and replaced with 0.1 mL/well culture medium, and cells were returned to incubation for an additional 48 hours. Subsequently, cell viability was assessed using Alamar Blue. For this purpose, media was removed by pipetting from cultured cells and replaced with 0.1 mL/well of 10% (v/v) Alamar Blue (#BUFO12A, AbD Serotec, Raleigh, N.C.) diluted in the appropriate cell culture media. Plates were then returned to incubation as before for appropriate color development, between two to four hours.
# Fluorescence of individual plate wells was measured at 545 nm/590 nm (excitation/emission) using a BioTek Synergy4 microplate reader. Cell viability was calculated as a percentage of measured fluorescence obtained relative to cells treated with culture media alone. IC50 values (μmol/L) were determined with the mean of triplicate values using nonlinear regression analysis and a four-parameter logistic model.
# [4] = in vivo; conditions: rat, plasma, 20 mg/kg
# [5] = Single-dose muscle myopathy study, 14-day observation; format: in vivo; conditions: for Myopathy / Survival: rats, 14 days
# From the text: Rats that loss greater than 20% of its body weight were dropped from the study. […]
# [6] = mouse, in vivo, male athymic nude mice, read-out: MTD
# [7] = Homo sapiens, 2 h, Table 7, read-out: 2 hr Tx (IC50)
# [8] = Homo sapiens, 24 h, Table 7, read-out: 24 hr Tx (IC50)
# [9] = Homo sapiens, 48 h, Table 7, read-out: 48 hr Tx (IC50)
# [10] = Table 7, read-out: 2 hr Tx (IC50)
# [11] = Table 7, read-out: 24 hr Tx (IC50)
# [12] = Table 7, read-out: 72 hr Tx (IC50)
compound,measurement,setting,value
"CN(C)CCN1C(=O)c2cccc3cc(N)cc(c23)C1=O [Amonafide Free, Amonafide]",MTD,[1]; [6],45 mg/kg
same,dose-limiting toxicity in clinical study,[2],high variability and dose-limiting toxicity
same,IC50,[3]; [7],90.3 µM
same,IC50,[3]; [8],34.2 µM
same,IC50,[3]; [9],15.7 µM
"CN(C)CCN1C(=O)c2cccc3cc4ccccc4c(c23)C1=O [Azonifide Free, Azonifide]",MTD,[1]; [6],10 mg/kg
same,IC50,[3]; [7],1.17 µM
same,IC50,[3]; [8],0.256 µM
same,IC50,[3]; [9],0.283 µM
same,IC50,"[3]; Homo sapiens, 72 h, Table 7, read-out: 72 hr Tx (IC50)",0.386 µM
C[C@H](CNCCNC[C@@H](C)N1C(=O)c2cccc3cc([N+](=O)[O-])cc(c23)C1=O)N1C(=O)c2cccc3cc([N+](=O)[O-])cc(c23)C1=O [DMP-840],dose-limiting toxicity in clinical study,[2],dose limiting toxicity
"O=C1c2cccc3cccc(c23)C(=O)N1CCNCCCNCCN1C(=O)c2cccc3cccc(c23)C1=O [Free Elinafide, Elinafide]",dose-limiting toxicity in clinical study,[2],cumulative dose-limiting neuro-muscular toxicity and myelosuppression
same,AUC,[4],4.7 ng·h/mL
same,Cmax,[4],1.4 ng/mL
same,Vd,[4],204000
same,half-life,[4],53.5 h
same,muscle myopathy in treated rats,"[5]; administration at MTD, single dose",significant muscle myopathy
same,Myopathy,"[5]; 25 mg/kg, F",1/3
same,Survival,"[5]; 25 mg/kg, F",3/3
same,Myopathy,"[5]; 25 mg/kg, M",2/3
same,Survival,"[5]; 25 mg/kg, M",3/3
same,Myopathy,"[5]; 35 mg/kg, F",3/3
same,Survival,"[5]; 35 mg/kg, F",3/3
same,Survival,"[5]; 35 mg/kg, M",0/3
"CN(C)CCN1C(=O)c2cccc3cc(NC(N)=O)cc(c23)C1=O [UNBS-5162 Free, UNBS-5162]",MTD,[1]; male athymic nude mice,45 mg/kg
same,dose-limiting toxicity in clinical study,[2],dose limiting toxicity
same,IC50,[3]; [10],> 100 µM
same,IC50,[3]; [11],24.8 µM
same,IC50,[3]; [12],31.3 µM
CN(C)CCN1C(=O)c2cccc3cc([N+](=O)[O-])cc(c23)C1=O [mitonafide],dose-limiting toxicity in clinical study,[2],dose limiting toxicity
Ethonafide [Ethonafide Free],MTD,"[1]; mouse, in vivo",15 mg/kg
same,IC50,[3]; [10],0.751 µM
same,IC50,[3]; [11],0.189 µM
same,IC50,[3]; [12],0.388 µM
